# Results taken from patent publication US5079247A, “N^1 -substituted benz(cd)indol-2-imine compounds as cardiovascular agents” (American Cyanamid Company, priority 1990, dated 1992).
# Where a name gives a salt, the structure may show the parent alone.
# Experiments:
# [1] = test system: CaCl2-induced cardiac arrhythmias, fibrillation and cardiac death in mice; assay: Antiarrhythmic/antifibrillatory activity in anesthetized mice, calcium chloride challenge; assay type: in vivo, mice of the Swiss Webster Strain; conditions: Mus musculus, iv, 0.25 h, calcium chloride 200 mg/kg i.v., read-out: CaCl2 Mice Surviving / Mice Tested (converted); for responders at 10 mg/kg: Dose = 10 mg/kg I.V., 15 minutes observation
# Description: (§1) Intravenous administration of high doses of calcium or potassium chloride in animals produces cardiac arrhythmias, cardiac fibrillation and cardiac arrest. Any agent that can prevent these events is considered an antiarrhythmic/antifibrillatory agent. (Meth. and Find Exptl. Clin Pharmacal.2:223-252(1980); Pharmacol Ther. 24:401-433 (1984); Experimental Cardiac and Antiarrhythmic Drugs, L. Szekeres and Gy. J. Dapp, Akademiai Kiado Preso, Budapest, 9-448 (1971)).
# (§2) The method employed is as follows: Male mice of the Swiss Webster Strain (Charles River, Wilmington, MA) weighing 25-35 g were anesthetized with ethyl carbamate (urethan) (1.5g/kg body weight i.p.). A 25-gauge needle attached to PE-20 tubing was inserted into a caudal vein for drug administration. The lead II ECG was recorded by needle electrodes placed subcutaneously in the limbs. All data were collected on a Gould Brush recorder. Animals were observed 5 minutes before drug administration. A 5, 15 or 30 minute period following drug administration was allowed before the bolus injection of calcium chloride, 200 mg/ kg i.v. or potassium chloride, 62.5 mg/kg i.v. Control mice received 4 ml/kg of 0.9% sodium chloride i.v. Mice were observed an additional 15 minutes for arrhythmias,fibrillation, survival or death. Any compound at a dose of less than 20 mg/kg i.v. in either test that protects from cardiac death 3 or more mice out of 6 mice, is considered active.
# [2] = test system: KCl-induced cardiac arrhythmias, fibrillation and cardiac death in mice; assay: Antiarrhythmic/antifibrillatory activity in anesthetized mice, potassium chloride challenge; assay type: in vivo, mice of the Swiss Webster Strain; conditions: Mus musculus, iv, 0.25 h, potassium chloride 62.5 mg/kg i.v.; for responders at 10 mg/kg: Dose = 10 mg/kg I.V., 15 minutes observation, read-out: KCl Mice Surviving / Mice Tested (converted)
# Description: as §1, §2
# [3] = target: T1, thromboxane synthetase enzyme (Rattus norvegicus, UniProt P49430); assay: Thromboxane synthetase enzyme inhibition (TXB2 formation in platelet suspension, RIA); assay type: cell-based, Okamoto-Aoki spontaneously hypertensive rats (SHR); conditions: concentration 1 × 10^-4 M; SHR platelet suspension, 10 minutes at 37° C.
# T1 construct: The platelets were isolated by centrifuging the PRP for 10 minutes; from tissue; host or cells: washed platelets from arterial blood of Okamoto-Aoki spontaneously hypertensive rats (animals from Taconic Farms)
# T1 sequence (P49430 1-533): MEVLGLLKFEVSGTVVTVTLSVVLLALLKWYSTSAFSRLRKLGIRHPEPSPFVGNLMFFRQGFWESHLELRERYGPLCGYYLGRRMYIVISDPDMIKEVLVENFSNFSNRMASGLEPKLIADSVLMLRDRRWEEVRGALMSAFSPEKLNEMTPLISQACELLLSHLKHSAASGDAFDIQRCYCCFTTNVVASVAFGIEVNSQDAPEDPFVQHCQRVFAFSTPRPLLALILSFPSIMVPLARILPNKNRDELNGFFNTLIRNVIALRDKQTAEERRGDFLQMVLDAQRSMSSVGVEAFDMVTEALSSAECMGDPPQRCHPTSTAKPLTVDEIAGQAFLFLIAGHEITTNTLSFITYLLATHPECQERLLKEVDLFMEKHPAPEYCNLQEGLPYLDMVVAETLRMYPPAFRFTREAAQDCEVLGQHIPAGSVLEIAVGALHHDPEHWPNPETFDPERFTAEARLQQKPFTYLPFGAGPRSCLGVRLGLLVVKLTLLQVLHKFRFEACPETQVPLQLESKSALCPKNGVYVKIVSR
# Method: Under urethan anethesia, […] of arterial blood from Okamoto-Aoki spontaneously hypertensive rats (SHR) (Taconic Farms, Germantown, New York) between 19 and 24 weeks in age was collected in 1 ml of 3.2% sodium citrate in a polystyrene tube. The blood was diluted with 3 ml of cold saline and centrifuged at room temperature for 15 minutes at 460Xg. The platelet rich plasma (PRP) was separated. The platelets were isolated by centrifuging the PRP for 10 minutes at 1060Xg and were washed in 4 ml of cold oxygenated Krebs phosphate buffer, pH 7.4. The chilled platelets, recovered from centrifuging at 800Xg for 10 minutes, were resuspended in oxygenated Krebs phosphate buffer and diluted to contain 4.5-6.0×10^4 platelets/μl. The inhibition of thromboxane (TX) formation was studied by determining the concentration of thromboxane B2 (TXB2), the stable hydrolysis product of TXA2. Assay samples, prepared on ice, contained 200 μl platelet suspension, 50 μl saline, and 50 μl vehicle or drug under study at a concentration of 1×10^-4 M. The samples were incubated for 10 minutes at 37° C. in metabolic shaker. The reaction was terminated by immersing the tubes in an ice bath and adding 50 μl of 0.5M citric acid. The samples were centrifuged for 10 minutes in a refrigerated centrifuge and the supernatants thus obtained were decanted and stored at -20° C. The TXB2 content for each sample was determined by a direct radioimmunoassay (RIA) utilizing a TXB2 specific RIA kit purchased from New England Nuclear, Boston, Massachusetts and expressed as pg TXB2 formed minute^-1 sample^-1, from which the percent inhibition of TXB2 formation was calculated.
# [4] = test system: spontaneously hypertensive rats of the Okamoto strain; assay: Hypotensive activity in spontaneously hypertensive rats (method of Chan and Poorvin); assay type: in vivo, rat; conditions: by gavage, 100 mg/kg or less, two doses 24 hours apart; MABP at 28 hours after initial dose; average baseline MABP 160±1.5 mm of mercury
# Method: The novel compounds of the present invention are active hypotensive agents and were tested for hypotensive activity by the method of P. S. Chan and D. Poorvin, Clinical and Experimental Hypertension, 1 (6), 817-830 (1979). Male, 16 week old, spontaneously hypertensive rats of the Okamoto strain, from Taconic Farms, Germantown, New York, having an average mean arterial blood pressure of 160±1.5 mm of mercury, were used in the test. One to 3 rats were used per test compound. […] A second identical dose of the test compound, without sodium chloride loading was given 24 hours later. At 28 hours after the initial dose the mean arterial blood pressure (MABP) was measured. The procedure was repeated in a second and third rat when necessary.
inhibition at 100 µM [3] [%],SMILES,responders at 10 mg/kg [1] [%],responders at 10 mg/kg [2] [%],also measured
,"c1ccc(CN2C(=NCCCn3ccnc3)c3cccc4cccc2c34)cc1 [Example 5, N-[1-(Phenylmethyl)benz[cd]indol-2 (1H)-ylidene]-1H-imidazole-1-propanamine]",83.3,83.3,
90,"Cl.Cl.c1ccc(OCCCN2C(=NCCCn3ccnc3)c3cccc4cccc2c34)cc1 [Example 12, N-[1-(3-Phenoxypropyl)benz[cd]indol-2(1H)-ylidene]-1H-imidazole-1-propanamine, dihydrochloride]",,,Avg. MABP in mm Hg (No. of Rats) [4]: 122 mm Hg
92,"c1ccc(CCCN2C(=NCCCn3ccnc3)c3cccc4cccc2c34)cc1 [Example 13, N-[1-(3-Phenylpropyl)benz[cd]indol-2(1H)-ylidene]-1H-imidazole-1-propanamine, (E)-2-butenedioate (1:2)]",,,
,"COc1cccc(CN2C(=NCCCn3ccnc3)c3cccc4cccc2c34)c1 [Example 14, N-[1-[(3Methoxyphenyl)methyl]benz[cd]indol-2(1H)-ylidene]-1H-imidazole-1-propanamine]",16.7,66.7,Avg. MABP in mm Hg (No. of Rats) [4]: 104 mm Hg
94,"CCCCCCN1C(=NCCCn2ccnc2)c2cccc3cccc1c23 [Example 16, N-(1-Hexylbenz[cd]indol-2(1H)-ylidene)-1H-imidazole 1-propanamine, (E)-2-butenedioate (1:2)]",,,
,"CCN(CC)CCN1C(=NCCCn2ccnc2)c2cccc3cccc1c23 [Example 17, N,N-Diethyl-2-[[3-(1H-imidazol-1-yl)propyl]imino]benz[cd]indole-1(2H)-ethanamine, (E)-2butenedioate (1:3)]",16.7,66.7,
,"CN1C(=NCCCn2ccnc2)c2cccc3cccc1c23 [Example 18, N-[1-Methylbenz[cd]indol-2(1H)-ylidene]-1H-imidazole-1-propanamine, (E)-2-butenedioate (1:2)]",0,66.7,
,"c1cc2c3c(cccc3c1)N(CCCN1C(=NCCCn3ccnc3)c3cccc4cccc1c34)C2=NCCCn1ccnc1 [Example 20, N,N'-[1,3-Propanediylbis(benz[cd]indol-1(2H)-ylidene)]bis-1H-imidazole-1-propanamine]",66.7,0,
,"CN1C(=NCCCn2ccnc2)c2cccc3c(CO)ccc1c23 [Example 21, 1,2-Dihydro-2-[[3-(1H-imidazol-1-yl)propyl]imino]-1-methylbenz[cd]indole-6-methanol, (E)-2-butanedioate (1:1)]",43.8,83.3,
,"CN1C(=NCCCCn2ccnc2)c2cccc3cccc1c23 [Example 22, N-(1-Methylbenz[cd]indol-2(1H)-ylidene)-1H-imidazole-1-butanamine]",,,Avg. MABP in mm Hg (No. of Rats) [4]: 112 mm Hg
,"c1ccc(CN2C(=NCCCCc3cccnc3)c3cccc4cccc2c34)cc1 [Example 29, N-[1-(Phenylmethyl)benz[cd]indol-2(1H)-ylidene]-3-pyridinebutanamine, (E)-2 butenedioate (1:2)]",33.3,66.7,
,c1ccc(C(c2ccccc2)N2C(=NCCCCc3cccnc3)c3cccc4cccc2c34)cc1 [Example 30],16.7,83.3,
96,"c1cncc(CCCCN=C2c3cccc4cccc(c34)N2Cc2cccnc2)c1 [Example 31, N-[1-(3-Pyridinylmethyl)benz[cd]indol 2(1H)-ylidene]-3-pyridinebutanamine, dihydrochloride]",,,Avg. MABP in mm Hg (No. of Rats) [4]: 119 mm Hg
93,"CCCCCCN1C(=NCCCCc2cccnc2)c2cccc3cccc1c23 [Example 33, N-(1-Hexylbenz[cd]indol-2(1H)-ylidene)-3-pyridinebutanamine, (E)-2-butenedioate (2:3)]",,,
,"CCN(CC)CC(=O)Nc1c(C)cccc1C [Lidocaine, reference compound]",83.3,50,
,"CCN(CC)CCNC(=O)c1ccc(N)cc1 [Procainamide, reference compound]",,,"responders at 5 mg/kg ([2]; 5 mg/kg i.v., read-out: KCl Mice Surviving / Mice Tested): 70%"
,"C=C[C@H]1C[N@@]2CC[C@H]1C[C@@H]2[C@@H](O)c1ccnc2ccc(OC)cc12 [Quinidine, reference compound]",,,"responders at 15 mg/kg ([1]; 15 mg/kg i.v.): 75%; responders at 15 mg/kg ([2]; 15 mg/kg i.v., read-out: KCl Mice Surviving / Mice Tested): 30%"

SMILES,inhibition at 100 µM [3] [%],responders at 10 mg/kg [1] [%],responders at 10 mg/kg [2] [%],also measured
"c1ccc(CN2C(=NCCCn3ccnc3)c3cccc4cccc2c34)cc1 [Example 6, N-[1-(Phenylmethyl)benz[cd]indol-2(1H)-ylidene]-1H-imidazole-1-propanamine,(E)-2-butenedioate (1:2)]",90,,,
"c1ccc(C(c2ccccc2)N2C(=NCCCn3ccnc3)c3cccc4cccc2c34)cc1 [Example 7, N-[1 (Diphenylmethyl)benz[cd]indol-2(1H)-ylidene]-1H-imidazole-1 propanamine]",75,16.7,83.3,
"N#CCCCCN1C(=NCCCn2ccnc2)c2cccc3cccc1c23 [Example 15, 2-[[3-(1H-Imidazol-1 yl)propyl]imino]benz[cd]indole-1(2H)-pentanenitrile]",94,16.7,50,
"CCN(CC)CCN1C(=NCc2cccnc2)c2cccc3cccc1c23 [Example 25, N,N-Diethyl-2-[(3-pyridinylmethyl)imino]benz[cd]indol-1(2H)ethanamine, (E)-2-butenedioate (2:3)]",91,16.7,50,
